The compounds below were run against Kv1.5 (Homo sapiens, UniProt P22460) (assay: Kv1.5 inhibition assay (IKur inhibitor assay per cited references)). Details: at 0.3 μM.
Sequence of Kv1.5 (P22460 whole entry): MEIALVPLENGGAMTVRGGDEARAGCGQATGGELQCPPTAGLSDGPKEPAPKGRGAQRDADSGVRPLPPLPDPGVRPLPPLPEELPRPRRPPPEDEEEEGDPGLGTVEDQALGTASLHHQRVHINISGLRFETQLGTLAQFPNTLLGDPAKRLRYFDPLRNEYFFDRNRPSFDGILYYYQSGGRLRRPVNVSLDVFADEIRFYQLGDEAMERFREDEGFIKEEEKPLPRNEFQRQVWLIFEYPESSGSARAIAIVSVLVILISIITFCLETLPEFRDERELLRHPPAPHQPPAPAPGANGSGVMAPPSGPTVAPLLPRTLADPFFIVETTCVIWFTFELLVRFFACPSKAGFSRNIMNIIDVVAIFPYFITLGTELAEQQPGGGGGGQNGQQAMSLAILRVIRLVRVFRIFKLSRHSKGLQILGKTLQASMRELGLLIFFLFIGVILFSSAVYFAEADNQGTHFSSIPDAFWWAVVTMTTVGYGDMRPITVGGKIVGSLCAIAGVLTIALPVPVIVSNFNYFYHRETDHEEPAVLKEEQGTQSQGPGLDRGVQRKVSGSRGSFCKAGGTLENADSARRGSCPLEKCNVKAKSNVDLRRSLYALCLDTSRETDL
Format: cell-based
Source text: Assays to determine the degree of activity of a compound as an IKur inhibitor are well known in the art and are described in references such as J. Gen. Physiol. Apr.; 101 (4):513-43, and Br. J. Pharmacol. 1995 May; 115(2):267-74.
`CC1=C(C(=O)N(C)S(=O)(=O)c2ccc(F)cc2)C(c2ccc(Cl)c(Cl)c2)n2nc(C)cc2N1` (single isomer, unassigned) [Example 80 Isomer 2, 7-(3,4-Dichlorophenyl)-N-(4-fluorophenylsulfonyl)-N,2,5-trimethyl-4,7-dihydropyrazolo[1,5-a]pyrimidine-6-carboxamide] was tested, and the Kv1.5% inhibition was 85%. `COc1ccc(S(=O)(=O)N(C)C(=O)C2=C(C)Nc3cc(C)nn3C2c2ccc(Cl)c(Cl)c2)cc1` (single isomer, unassigned) [Example 81 Isomer 1, 7-(3,4-Dichlorophenyl)-N-(4-methoxyphenylsulfonyl)-N,2,5-trimethyl-4,7-dihydropyrazolo[1,5-a]pyrimidine-6-carboxamide] showed an inhibition at 0.3 µM of 16%. `CC1=C(C(=O)N2CCCCS2(=O)=O)C(c2ccc(Cl)c(Cl)c2)n2nc(C)cc2N1` (single isomer, unassigned) [Example 84 Isomer 1] gave a Kv1.5% inhibition of 19%. With `CC1=C(C(=O)N2CCCCS2(=O)=O)C(c2ccc(Cl)c(Cl)c2)n2nc(C)cc2N1` (single isomer, unassigned) [Example 84 Isomer 2] the Kv1.5% inhibition was 7%. Compound `CC1=C(C(=O)N(C)S(=O)(=O)c2ccccc2)C(c2ccc(Cl)c(Cl)c2)n2nc(C(F)(F)F)cc2N1` (single isomer, unassigned) [Example 90 Isomer 1, 7-(3,4-Dichlorophenyl)-N,5-dimethyl-N-(phenylsulfonyl)-2-(trifluoromethyl)-4,7-dihydropyrazolo[1,5-a]pyrimidine-6-carboxamide] has an inhibition at 0.3 µM of 37%. `CC1=C(C(=O)N(C)S(=O)(=O)c2ccccc2)C(c2ccc(Cl)c(Cl)c2)n2nc(C(F)(F)F)cc2N1` (single isomer, unassigned) [Example 90 Isomer 2, 7-(3,4-Dichlorophenyl)-N,5-dimethyl-N-(phenylsulfonyl)-2-(trifluoromethyl)-4,7-dihydropyrazolo[1,5-a]pyrimidine-6-carboxamide] gave a Kv1.5% inhibition of 51%. `CCCS(=O)(=O)N(C)C(=O)C1=C(C)Nc2cc(C(F)(F)F)nn2C1c1ccc(Cl)c(Cl)c1` (single isomer, unassigned) [Example 91 Isomer 1, 7-(3,4-Dichlorophenyl)-N,5-dimethyl-N-(propylsulfonyl)-2-(trifluoromethyl)-4,7-dihydropyrazolo[1,5-a]pyrimidine-6-carboxamide] was tested, and the inhibition at 0.3 µM was 72%. `CCCS(=O)(=O)N(C)C(=O)C1=C(C)Nc2cc(C(F)(F)F)nn2C1c1ccc(Cl)c(Cl)c1` (single isomer, unassigned) [Example 91 Isomer 2, 7-(3,4-Dichlorophenyl)-N,5-dimethyl-N-(propylsulfonyl)-2-(trifluoromethyl)-4,7-dihydropyrazolo[1,5-a]pyrimidine-6-carboxamide] showed a Kv1.5% inhibition of 52%. For `CCN(C(=O)C1=C(C)Nc2cc(C(F)(F)F)nn2C1c1ccc(Cl)c(Cl)c1)S(=O)(=O)c1ccc(Cl)cc1` (single isomer, unassigned) [Example 93 Isomer 1, N-(4-Chlorophenylsulfonyl)-7-(3,4-dichlorophenyl)-N-ethyl-5-methyl-2-(trifluoromethyl)-4,7-dihydropyrazolo[1,5-a]pyrimidine-6-carboxamide], the inhibition at 0.3 µM was 31%. Work on `CCN(C(=O)C1=C(C)Nc2cc(C(F)(F)F)nn2C1c1ccc(Cl)c(Cl)c1)S(=O)(=O)c1ccc(Cl)cc1` (single isomer, unassigned) [Example 93 Isomer 2, N-(4-Chlorophenylsulfonyl)-7-(3,4-dichlorophenyl)-N-ethyl-5-methyl-2-(trifluoromethyl)-4,7-dihydropyrazolo[1,5-a]pyrimidine-6-carboxamide] yielded a Kv1.5% inhibition of 27%. Work on `CC1=C(C(=O)N(C)S(=O)(=O)c2c(C)noc2C)C(c2ccc(Cl)c(Cl)c2)n2nc(C)cc2N1` (single isomer, unassigned) [Example 94 Isomer 1, 7-(3,4-Dichlorophenyl)-N-(3,5-dimethylisoxazol-4-ylsulfonyl)-N,2,5-trimethyl-4,7-dihydropyrazolo[1,5-a]pyrimidine-6-carboxamide] yielded an inhibition at 0.3 µM of 80%. With `CC1=C(C(=O)N(C)S(=O)(=O)c2c(C)noc2C)C(c2ccc(Cl)c(Cl)c2)n2nc(C)cc2N1` (single isomer, unassigned) [Example 94 Isomer 2, 7-(3,4-Dichlorophenyl)-N-(3,5-dimethylisoxazol-4-ylsulfonyl)-N,2,5-trimethyl-4,7-dihydropyrazolo[1,5-a]pyrimidine-6-carboxamide] the Kv1.5% inhibition was 63%. In the case of `CC1=C(C(=O)N(C)S(=O)(=O)c2c(C)noc2C)C(c2ccc(Cl)c(Cl)c2)n2nc(C(F)(F)F)cc2N1` (single isomer, unassigned) [Example 95 Isomer 1, 7-(3,4-Dichlorophenyl)-N-(3,5-dimethylisoxazol-4-ylsulfonyl)-N,5-dimethyl-2-(trifluoromethyl)-4,7-dihydropyrazolo[1,5-a]pyrimidine-6-carboxamide], the inhibition at 0.3 µM is reported as 91%. `CC1=C(C(=O)N(C)S(=O)(=O)c2c(C)noc2C)C(c2ccc(Cl)c(Cl)c2)n2nc(C(F)(F)F)cc2N1` (single isomer, unassigned) [Example 95 Isomer 2, 7-(3,4-Dichlorophenyl)-N-(3,5-dimethylisoxazol-4-ylsulfonyl)-N,5-dimethyl-2-(trifluoromethyl)-4,7-dihydropyrazolo[1,5-a]pyrimidine-6-carboxamide] showed a Kv1.5% inhibition of 71%. Work on `CC1=C(C(=O)N(C)S(=O)(=O)C(C)C)C(c2ccc(Cl)c(Cl)c2)n2nc(C(F)(F)F)cc2N1` (single isomer, unassigned) [Example 96 Isomer 1, 7-(3,4-Dichlorophenyl)-N-(isopropylsulfonyl)-N,5-dimethyl-2-(trifluoromethyl)-4,7-dihydropyrazolo[1,5-a]pyrimidine-6-carboxamide] yielded an inhibition at 0.3 µM of 57%. Work on `CC1=C(C(=O)N(C)S(=O)(=O)C(C)C)C(c2ccc(Cl)c(Cl)c2)n2nc(C(F)(F)F)cc2N1` (single isomer, unassigned) [Example 96 Isomer 2, 7-(3,4-Dichlorophenyl)-N-(isopropylsulfonyl)-N,5-dimethyl-2-(trifluoromethyl)-4,7-dihydropyrazolo[1,5-a]pyrimidine-6-carboxamide] yielded a Kv1.5% inhibition of 56%. In the case of `CCN(C(=O)C1=C(C)Nc2cc(C)nn2C1c1ccc(Cl)c(Cl)c1)S(=O)(=O)c1c(C)noc1C` (single isomer, unassigned) [Example 97 Isomer 1, 7-(3,4-Dichlorophenyl)-N-(3,5-dimethylisoxazol-4-ylsulfonyl)-N-ethyl-2,5-dimethyl-4,7-dihydropyrazolo[1,5-a]pyrimidine-6-carboxamide], the Kv1.5% inhibition is reported as 91%. For `CCN(C(=O)C1=C(C)Nc2cc(C)nn2C1c1ccc(Cl)c(Cl)c1)S(=O)(=O)c1c(C)noc1C` (single isomer, unassigned) [Example 97 Isomer 2, 7-(3,4-Dichlorophenyl)-N-(3,5-dimethylisoxazol-4-ylsulfonyl)-N-ethyl-2,5-dimethyl-4,7-dihydropyrazolo[1,5-a]pyrimidine-6-carboxamide], the Kv1.5% inhibition was 50%.

Same assay, conditions: given as % inhibition, value given as a concentration in μM; read-out: Kv1.5% inhibition
`COc1ccc(S(=O)(=O)N(C)C(=O)C2=C(C)Nc3cc(C)nn3C2c2ccc(Cl)c(Cl)c2)cc1` (single isomer, unassigned) [Example 81 Isomer 2, 7-(3,4-Dichlorophenyl)-N-(4-methoxyphenylsulfonyl)-N,2,5-trimethyl-4,7-dihydropyrazolo[1,5-a]pyrimidine-6-carboxamide] showed an IC50 of 0.098 µM.

Same assay, conditions: read-out: Kv1.5 IC50
`CC1=C(C(=O)N(C)S(=O)(=O)C2CC2)C(c2ccc(Cl)c(Cl)c2)n2nc(C(F)(F)F)cc2N1` (single isomer, unassigned) [Example 98 Isomer 1, N-(Cyclopropylsulfonyl)-7-(3,4-dichlorophenyl)-N,5-dimethyl-2-(trifluoromethyl)-4,7-dihydropyrazolo[1,5-a]pyrimidine-6-carboxamide] was tested, and the IC50 was 0.112 µM. `CC1=C(C(=O)N(C)S(=O)(=O)C2CC2)C(c2ccc(Cl)c(Cl)c2)n2nc(C(F)(F)F)cc2N1` (single isomer, unassigned) [Example 98 Isomer 2, N-(Cyclopropylsulfonyl)-7-(3,4-dichlorophenyl)-N,5-dimethyl-2-(trifluoromethyl)-4,7-dihydropyrazolo[1,5-a]pyrimidine-6-carboxamide] gave an IC50 of 0.2 µM.

Source: patent US7507730B2, “Substituted pyrazolo[1,5-a]pyrimidines as potassium channel activators” (Bristol-Myers Squibb Company, priority 2005, dated 2009)
